Data published in US20120171123A1, “USES AND COMPOSITIONS FOR TREATMENT OF RHEUMATOID ARTHRITIS” (priority 2006, published 2012).
Marks after values point to notes of the source that are not given here.

Legend:
[1] = tested on: MTX-naïve adult patients with active, early RA (<3 years); test: Study J: CRP normalization; type: in vivo, human; conditions: for Patient numbers: CRP Abnormal at Baseline, Abnormal at 1 Year / Patient numbers: CRP Normal at Baseline, Abnormal at 1 Year: Abnormal CRP >0.8 mg/dL; for Patient numbers: CRP Abnormal at Baseline, Normal at 1 Year / Patient numbers: CRP Normal at Baseline, Normal at 1 Year: Normal CRP ≦0.8 mg/dL
Procedure: Baseline demographics and clinical characteristics of the patients enrolled in this study are described in Example 7. […] After 1 and 2 years of therapy, the percentages of patients with ACR90 responses, TJC=0, SJC=0, HAQ=0, morning stiffness=0 minutes, and normal CRP were determined. Data are from the intention-to-treat (ITT) population with imputation used for missing values. Results were compared with the percentages of patients who achieved DAS28<2.6 or a Major Clinical Response (MCR).
Radiographic progression was assessed by mean change from baseline in Total Sharp Score (TSS) and stratified into those with (ΔTSS>0.5) and without (Δ≦TSS 0.5). Patients were categorized as either having radiographic progression at 1 year (ΔTSS>0.5) or not (Δ≦TSS 0.5). A logistic regression model was used to identify predictors of radiographic disease progression by testing several baseline characteristics, including age, disease duration, RF status, TJC, SJC, joint erosions, and CRP. For analyses of CRP, patients were categorized as normal (CRP≦0.8 mg/dL) or abnormal (CRP>0.8 mg/dL).

[2] = tested on: MTX-naïve adult patients with active, early RA (<3 years); test: Study J: treatment emergent adverse events; conditions: 2 years
From the text: Study J was a 2-year randomized controlled trial in patients with early RA (disease duration<3 years). Participants in these clinical trials and in other phase Mb studies, were routinely evaluated for safety. Reports of serious adverse events (SAE) were tabulated using MedDRA coding by events per 100-patient-years (E/100PY). SAE rates were compared with respect to disease duration between patients with early (<3 yrs) and long-standing RA.

[3] = tested on: MTX-naïve adult patients with early RA (<3 years); test: Study J: escalation of injectable medicine from eow to weekly dosing; type: in vivo, human; conditions: for ACR20 following dosage escalation, % of all patients in arm / ACR70 following dosage escalation, % of all patients in arm / DAS28 < 2.6 following dosage escalation, % of all patients in arm / ACR60 following dosage escalation, % of all patients in arm: patients with no prior ACR20 response, NRI; for ACR50, % of responders / ACR70, % of responders: patients whose dosages of adalimumab or placebo injections were escalated; for patients who increased injectable medication to weekly: during year 1 (placebo injections in MTX arm)
Procedure: Study J was a 2-year, double-blind, active comparator-controlled, Phase III study. […] In patients receiving ADA+MTX or MTX monotherapy, the 7.5 mg MTX weekly dosage increased to 20 mg over 8 weeks, as tolerated and as needed. Monotherapy patients received either placebo pills (adalimumab arm) or placebo injections (MTX arm). Efficacy outcomes measured included ACR response, DAS28 remission, major clinical response, and radiographic change from baseline.
MTX optimization was required before starting weekly injections (to 20 mg weekly, maximum). Once initiated, weekly dosing of injectable medicine was to be maintained until end of study. Criteria for identification of dosage escalators were a sequence of 4 consecutive injections for which the interval for every two consecutive injections was ≦10 days, and/or that the date of escalation, defined as the second of the 4 injections, had to be on or after Week 16 in Year 1. Three dosage escalator categories were defined, based on best ACR response rate achieved any time prior to escalation: Group A=ACR non-responders (never achieved ACR20 prior to dosage escalation), Group B=Partial responders (achieved ACR20 or ACR50 at least once prior to escalation, but never ACR70), and Group C=ACR70 responders (achieved ACR70 at least once prior to escalation). Data are from the intention-to-treat (ITT) population, with missing data analyzed by non-responder imputation (NRI) for clinical measures and by linear imputation for total Sharp scores (TSS).

[4] = tested on: MTX-naïve adult patients with active, early RA (<3 years); test: Study J (adalimumab 40 mg eow + MTX vs adalimumab alone vs MTX alone, 2 years): ACR20/50/70/90 response and Major Clinical Response; type: in vivo, human; conditions: for Major Clinical Response (ACR70 for ≧6 continuous months): over 2 years
Procedure: This study was a 2-year, double-blind, active-comparator-controlled Phase III study conducted at 149 sites in North America, Europe, and Australia. […] MTX-naïve adult patients with active, early RA (<3 years) were included in the study. Further inclusion criteria included: SJC≧8 and TJC≧10; ESR≧28 mm/hr or CRP≧1.5 mg/dL; and RF-positivity or at least one joint erosion. […] MTX dosages were rapidly optimized to a maximum of 20 mg weekly.
The co-primary endpoints, comparing MTX alone with the combination at 1 year, were the ACR50 response (using non-responder imputation), and inhibition of radiographic progression, as measured by change in total Sharp score (TSS). In this study, the term “Major Clinical Response” (MCR) meant a continuous ACR70 response for 6 or more consecutive months.
The results of this study were evaluated using multiple criteria for clinical remission. This study (Study J) was a 2-year, double-blind, Phase III study.
Secondary endpoints included DAS28<2.6 at year 1 and Major Clinical Response (MCR=ACR70 response for ≧6 continuous months during a 2-year period).
Study J was a 2-year, double-blind, Phase III study. […] MTX dosages were rapidly optimized to a maximum of 20 mg weekly. Mean changes in total Sharp score (TSS) were measured for patients who achieved American College of Rheumatology (ACR) response (ACR20, ACR50, and ACR70), as well as clinical remission by Disease Activity Score 28 (DAS28<2.6).
At 1 and 2 years, the American College of Rheumatology (ACR) responses (ACR20, ACR50, and ACR70), the Disease Activity Score 28 (DAS28), and the change (Δ) in Total Sharp Score (TSS) were determined for all patients. Results were analyzed for the intention-to-treat (ITT) population using imputation for missing data. Clinical remission was defined as DAS28<2.6. The mean ΔTSS values at 1 year and 2 years (N=791) were determined for patients in each ACR response category (ACR20/50/70) and for patients with DAS28<2.6
Patients in the Ada+MTX and the MTX arms were classified according to level of clinical response (non-responder (<ACR20), ACR20, ACR50, or ACR70) and radiographic progression (Yes or No (ΔTSS≦0.5)). The ΔTSS was analyzed overall, and for ACR subgroups. This included determination of mean ΔTSS and probability plots. Analyses used observed data from patients completing 6 months or 2 years of treatment (no imputation).

[5] = tested on: patients with long-standing RA; conditions: in vivo
[6] = 6 months, completers, observed data
[7] = week 52 (1 year), non-responder imputation

## CN(Cc1cnc2nc(N)nc(N)c2n1)c1ccc(C(=O)N[C@@H](CCC(=O)O)C(=O)O)cc1 [mtx alone, methotrexate]
[1]; 1 year
  Normal CRP (≦0.8 mg/dL): 35 % patients
[1]; 1 year, listed as MTX Alone
  patients with abnormal baseline CRP that became normal: 53% (n = 159)
[1]; 1 year, listed as MTX alone
  patients with abnormal baseline CRP that became normal: 53%
[1]; 2 years
  Normal CRP (≦0.8 mg/dL): 29 % patients
[1]
  Patient numbers: CRP Abnormal at Baseline, Abnormal at 1 Year: 75
  Patient numbers: CRP Normal at Baseline, Abnormal at 1 Year: 7
  Patient numbers: CRP Abnormal at Baseline, Normal at 1 Year: 84
  Patient numbers: CRP Normal at Baseline, Normal at 1 Year: 21
[2]
  All infectious AE: 119 Events/100-PY
  Demyelination: 0.0 Events/100-PY
  Lymphoma: 0.2 Events/100-PY
  Malignancies: 0.9 Events/100-PY
  Pancytopenia: 0.2 Events/100-PY
  Serious AE: 15.9 Events/100-PY
  Serious Infectious AE: 1.6 Events/100-PY
  Tuberculosis: 0.0 Events/100-PY
[3]; 1 year
  ACR20 following dosage escalation, % of all patients in arm: 3.5%
  ACR70 following dosage escalation, % of all patients in arm: 0.8%
  DAS28 < 2.6 following dosage escalation, % of all patients in arm: 0.0%
[3]; 2 years, eow dosing
  No radiographic progression, % of patients: 36.6%
[3]; 2 years
  ACR20 following dosage escalation, % of all patients in arm: 3.6%
  ACR70 following dosage escalation, % of all patients in arm: 1.2%
  DAS28 < 2.6 following dosage escalation, % of all patients in arm: 0.8%
[3]; 2 years, weekly dosing
  No radiographic progression, % of patients: 21.2%
[3]; Year 1
  ACR50, % of responders: 17%
  ACR70, % of responders: 8%
[3]; Year 2
  ACR50, % of responders: 21%
  ACR70, % of responders: 12%
[3]
  patients who increased injectable medication to weekly: 20%
[4]; 2 years, completers, observed data
  ACR70: 43%
[4]; [6]
  ACR20: 79.3%
  ACR50: 51.6%
  ACR70: 28.6%
[4]
  Major Clinical Response (ACR70 for ≧6 continuous months): 27 % of patients
[4]; week 52 (1 year)
  ACR70: 28 % of patients
  ACR90: 13 % of patients
[4]; [7]
  ACR20: 63# % of patients
  ACR50: 46 % of patients
[4]; week 52 (1 year), non-responder imputation, listed as MTX alone
  ACR20: 63 % of patients
[4]; week 104 (2 years)
  ACR20: 56 % of patients
  ACR50: 43 % of patients
  ACR70: 28 % of patients
  ACR90: 13 % of patients

## adalimumab: human anti-TNF mAb (HUMIRA, Abbott Laboratories), described in U.S. Pat. No. 6,090,382 as D2E7
[5]
  withdrawals for adverse events: 15%
[1]; 1 year
  Normal CRP (≦0.8 mg/dL): 34 % patients
[1]; 1 year, listed as Adalimumab Alone
  patients with abnormal baseline CRP that became normal: 52% (n = 150)
[1]; 2 years
  Normal CRP (≦0.8 mg/dL): 34 % patients
[1]
  Patient numbers: CRP Abnormal at Baseline, Abnormal at 1 Year: 72
  Patient numbers: CRP Normal at Baseline, Abnormal at 1 Year: 4
  Patient numbers: CRP Abnormal at Baseline, Normal at 1 Year: 78
  Patient numbers: CRP Normal at Baseline, Normal at 1 Year: 33
[2]
  Tuberculosis: 0.0 Events/100-PY
[3]; 1 year
  ACR20 following dosage escalation, % of all patients in arm: 1.8%
  ACR60 following dosage escalation, % of all patients in arm: 1.6%
  ACR70 following dosage escalation, % of all patients in arm: 0 (0) %
  DAS28 < 2.6 following dosage escalation, % of all patients in arm: 0.4%
[3]; 2 years, eow dosing
  No radiographic progression, % of patients: 48.8%
[3]; 2 years
  ACR20 following dosage escalation, % of all patients in arm: 2.6%
  ACR60 following dosage escalation, % of all patients in arm: 0.4%
  ACR70 following dosage escalation, % of all patients in arm: 0.4%
  DAS28 < 2.6 following dosage escalation, % of all patients in arm: 0.4%
[3]; 2 years, weekly dosing
  No radiographic progression, % of patients: 31.9%
[3]; Year 1
  ACR50, % of responders: 17%
  ACR70, % of responders: 6%
[3]; Year 2
  ACR50, % of responders: 16%
  ACR70, % of responders: 10%
[3]
  patients who increased injectable medication to weekly: 25%
[4]
  Major Clinical Response (ACR70 for ≧6 continuous months): 25 % of patients
[4]; week 52 (1 year)
  ACR70: 26 % of patients
  ACR90: 8 % of patients
[4]; [7]
  ACR20: 54 % of patients
  ACR50: 42 % of patients
[4]; week 104 (2 years)
  ACR20: 50 % of patients
  ACR50: 37 % of patients
  ACR70: 28 % of patients
  ACR90: 9 % of patients
